Data as given in patent US11766419B2, “Mebeverine as soluble epoxide hydrolase inhibitor” (Banasthali Vidyapith, priority 2021, dated 2023).
Values joined by “and” are separate entries in the source; they are usually repeats but may differ in a detail not shown here. Identical values can stand only once.

Experiments:
[1] = biological target: T1, sEH (Homo sapiens, UniProt P34913); experiment: In vitro sEH activity assay (PHOME substrate, fluorescence); format: biochemical; parameters: sEH inhibitory activity (in words): dose or concentration left out as unconfirmed
T1 sequence (P34913 1-555): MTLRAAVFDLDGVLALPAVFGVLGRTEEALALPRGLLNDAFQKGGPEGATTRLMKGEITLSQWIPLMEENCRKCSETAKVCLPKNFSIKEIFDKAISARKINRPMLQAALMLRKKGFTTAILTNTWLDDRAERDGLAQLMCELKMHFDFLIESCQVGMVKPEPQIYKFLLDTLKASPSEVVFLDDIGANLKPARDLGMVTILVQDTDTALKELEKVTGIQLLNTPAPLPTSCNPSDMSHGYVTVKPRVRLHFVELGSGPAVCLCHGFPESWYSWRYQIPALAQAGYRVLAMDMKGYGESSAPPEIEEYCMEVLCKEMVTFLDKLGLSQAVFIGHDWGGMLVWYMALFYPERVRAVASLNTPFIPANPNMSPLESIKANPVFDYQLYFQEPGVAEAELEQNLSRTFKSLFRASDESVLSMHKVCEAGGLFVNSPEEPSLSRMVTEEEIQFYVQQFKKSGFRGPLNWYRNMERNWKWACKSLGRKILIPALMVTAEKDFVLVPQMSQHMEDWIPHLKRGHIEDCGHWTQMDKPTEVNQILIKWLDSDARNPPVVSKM
Method: Hydrolysis of PHOME by sEH results in the release of cyanohydrins that further decomposes to cyanide ion and 6-methoxy-2-naphthaldehyde (highly fluorescent). The fluorescence was analyzed at an excitation and emission wavelength of 330 nm and 465 nm respectively.

[2] = system: isolated rat aortic strip; experiment: Ex-vivo relaxation of KCl pre-constricted isolated rat aortic strip; conditions: aortic rings constricted with 80 mmol KCl
Method: Aortic rings were suspended in organ baths containing a modified Krebs buffer and bubbled with a mixture of 95% O2/5% CO2. Rings were connected to an isometric force transducer, resting tension was set to 5 g and constricted with 80 mmol KCl. The relaxation of these pre-constricted aortic trips at different concentrations of mebeverine (10^−9-10^−[…]) are tabulated in Table 2 and plotted in FIG. 2.

[3] = system: angiotensin-II induced hypertensive rats; experiment: Angiotensin II induced hypertension, blood pressure; format: in vivo, rat
Method: Wistar albino male rats were divided into four experimental groups (I, II, III and IV). Groups II-IV were infused with Angiotensin II at a continuous rate via subcutaneously implanted osmotic mini pump for 7 days. After induction of high blood pressure, (>140/90 mm of Hg), Groups III and IV were administered with mebeverine twice daily for five consecutive days at 10 mg/kg and 20 mg/kg doses respectively. At the end of this experimental period SAP, DAP and MAP were measured. The results are tabulated below in Tables 3A, 3B, and 3C, respectively, and are plotted in FIGS. 3a, 3b and 3c.

[4] = system: DOCA-induced hypertensive rats; experiment: DOCA induced hypertension, blood pressure; format: in vivo, rat
Method: Wistar albino male rats were divided into four experimental groups (I, II, III and IV). Groups (II-IV) were administered with DOCA (20 mg/kg in 5% DMSO) intraperitoneally and drinking water was replaced by 2% NaCl. After induction of high blood pressure, Groups III and IV were treated with 10 mg/kg and 20 mg/kg mebeverine orally, respectively. At the end of this experimental period SAP, DAP and MAP were measured. The results are tabulated below in Tables 4A, 4B and 4C, respectively, and are plotted in FIGS. 4a, 4b and 4c.

CCN(CCCCOC(=O)c1ccc(OC)c(OC)c1)C(C)Cc1ccc(OC)cc1 (stereo not shown) [Mebeverine]
sEH inhibitory activity (in words) ([1]; dose-dependent): potent inhibitor of sEH enzyme | IC50 ([1]; sEH, PHOME substrate): 3.9 nM | % relaxation ([2]; Mebeverine conc 10^−4 nM (maximal relaxant effect)): 79.3±0.01% and 79.3% | % relaxation ([2]; Mebeverine conc 10^−5 nM): 71.1% | % relaxation ([2]; Mebeverine conc 10^−6 nM): 64.9% | % relaxation ([2]; Mebeverine conc 10^−7 nM): 52.2% | % relaxation ([2]; Mebeverine conc 10^−8 nM): 23.9% | % relaxation ([2]; Mebeverine conc 10^−9 nM): 14.5% | DAP ([3]; 10 mg/kg twice daily, D 0): 189 ± 13.43 mm Hg | MAP ([3]; 10 mg/kg twice daily, D 0): 200 ± 8.40 mm Hg | SAP ([3]; 10 mg/kg twice daily, D 0): 213 ± 6.360 mm Hg | DAP ([3]; 10 mg/kg twice daily, D 3): 168 ± 6.86 mm Hg | MAP ([3]; 10 mg/kg twice daily, D 3): 182 ± 12.02 mm Hg | SAP ([3]; 10 mg/kg twice daily, D 3): 208 ± 6.970 mm Hg | DAP ([3]; 10 mg/kg twice daily, D 4): 95 ± 11.70 mm Hg | MAP ([3]; 10 mg/kg twice daily, D 4): 110 ± 16.78 mm Hg | SAP ([3]; 10 mg/kg twice daily, D 4): 146 ± 5.370 mm Hg | DAP ([3]; 10 mg/kg twice daily, D 5): 92 ± 4.24 mm Hg | MAP ([3]; 10 mg/kg twice daily, D 5): 108 ± 1.07 mm Hg | SAP ([3]; 10 mg/kg twice daily, D 5): 140 ± 2.120 mm Hg | DAP ([3]; 20 mg/kg twice daily, D 0): 152 ± 1.40 mm Hg | MAP ([3]; 20 mg/kg twice daily, D 0): 170 ± 4.30 mm Hg | SAP ([3]; 20 mg/kg twice daily, D 0): 193 ± 3.530 mm Hg | DAP ([3]; 20 mg/kg twice daily, D 3): 109 ± 28.80 mm Hg | MAP ([3]; 20 mg/kg twice daily, D 3): 128 ± 7.07 mm Hg | SAP ([3]; 20 mg/kg twice daily, D 3): 147 ± 5.600 mm Hg | DAP ([3]; 20 mg/kg twice daily, D 4): 86 ± 1.70 mm Hg | MAP ([3]; 20 mg/kg twice daily, D 4): 98 ± 1.51 mm Hg | SAP ([3]; 20 mg/kg twice daily, D 4): 123 ± 7.28 mm Hg | DAP ([3]; 20 mg/kg twice daily, D 5): 82 ± 3.53 mm Hg | MAP ([3]; 20 mg/kg twice daily, D 5): 92 ± 2.82 mm Hg | SAP ([3]; 20 mg/kg twice daily, D 5): 119 ± 7.07 mm Hg | Effect on high blood pressure (in words) ([3]; both 10 mg/kg and 20 mg/kg, P<0.001): reduces the high blood pressure | DAP ([4]; 10 mg/kg orally, D 0): 168 ± 10.60 mm Hg | MAP ([4]; 10 mg/kg orally, D 0): 179 ± 7.63 mm Hg | SAP ([4]; 10 mg/kg orally, D 0): 213 ± 2.82 mm Hg | DAP ([4]; 10 mg/kg orally, D 3): 156 ± 9.89 mm Hg | MAP ([4]; 10 mg/kg orally, D 3): 170 ± 0.52 mm Hg | SAP ([4]; 10 mg/kg orally, D 3): 187 ± 8.48 mm Hg | DAP ([4]; 10 mg/kg orally, D 4): 101 ± 1.52 mm Hg | MAP ([4]; 10 mg/kg orally, D 4): 114 ± 6.08 mm Hg | SAP ([4]; 10 mg/kg orally, D 4): 140 ± 8.00 mm Hg | DAP ([4]; 10 mg/kg orally, D 5): 84 ± 1.06 mm Hg | MAP ([4]; 10 mg/kg orally, D 5): 99 ± 0.77 mm Hg | SAP ([4]; 10 mg/kg orally, D 5): 108 ± 1.41 mm Hg | DAP ([4]; 20 mg/kg orally, D 0): 185 ± 3.50 mm Hg | MAP ([4]; 20 mg/kg orally, D 0): 199 ± 6.54 mm Hg | SAP ([4]; 20 mg/kg orally, D 0): 226 ± 4.94 mm Hg | DAP ([4]; 20 mg/kg orally, D 3): 128 ± 7.07 mm Hg | MAP ([4]; 20 mg/kg orally, D 3): 140 ± 1.71 mm Hg | SAP ([4]; 20 mg/kg orally, D 3): 166 ± 6.36 mm Hg | DAP ([4]; 20 mg/kg orally, D 4): 83 ± 5.13 mm Hg
